System: U937 cells
Test: Proliferation test ViaLight HS, U937 cells (Example 8)
Assay type: cell-based, human
Conditions: Homo sapiens, U-937, 72 h, 72 h incubation; range = multiple experiments, otherwise individual experiments
Procedure: 2C Proliferation test ViaLight® HS High Sensitivity Cytotoxicity and Cell Proliferation BioAssay Kit
This protocol allows the determination of the cytostatic and cytotoxic activities of compounds to be tested on mammalian cells in culture and was carried out essentially according to the manufacturer's recommendations.
Cells are suspended in 15 mL of their respective media and are enumerated. They are then diluted in their media in order to obtain: • 2500 cells per 90 μL per well for MRC5 cells • 5000 cells per 90 μL per well for all other cell lines. Cells are then seeded in a 96 well plate, and incubated at least 4 hours in the incubator at 37° C. in 5% CO2.
The molecules to be tested are diluted in DMEM with DMSO in order to obtain the following dilutions: • dilution at 250 μM/1% DMSO • dilution at 50 μM/1% DMSO • dilution at […] • dilution at 2 μM/1% DMSO • dilution at 400 nM/1% DMSO • dilution at 80 nM/1% DMSO For each well comprising 90 μL of cell suspension, 10 μL of a solution of the compound to be tested is added, with the 6 different concentrations. The plate is then incubated during 72 hours. One control plate is contacted with 10 μL of DMEM 1% DMSO, without compound to be tested. 50 μL of lysis buffer (test Vialight® lysis buffer) is added in each well of the control plate and the plate is incubated 10 minutes under hood.
Then, 100 μL of test buffer (test Vialight® test buffer) is added in each well and the control plate is incubated during 2 minutes. The luminescence is read in each well. The mean luminescence for each type of cells is called T0.
After the 72 h incubation, in order to determine the viability, 50 μL of lysis buffer (test Vialight® lysis buffer) is added in each well of the plates and the plates are incubated 10 minutes under hood.
Then, 100 μL of test buffer (test Vialight® test buffer) is added in each well and the plates are incubated during 2 minutes. The luminescence is read in each well. For each type of cell, the mean luminescence in the well not containing the compound is called C72 and the mean luminescence in well containing a given concentration of a compound to be tested is called T72. For each dilution (concentration of compound to be tested), T0 and T72 values are compared.
The graph is plotted for the different concentrations of compound and • GI50 (50% of growth inhibitory) is determined, this is the dose producing 50% of cell growth (intersection at Y=50); • TGI (total growth inhibitory) is determined on the graph, this is the dose producing the total arrest of the cell growth (intersection at Y=0); and • LC50 (50% of lethal concentration) is determined, this is the dose producing the death of 50% of the cells (intersection at Y=−50).
Following the protocol described in Example 2C, different compounds according to the invention have been tested for their cytostatic and cytotoxic activities on mammalian cells in culture (specifically U937 cells).
The GI50 (50% of growth inhibitory) has been determined for all the following compounds, i.e. the dose producing 50% of cell growth inhibition.
Where the GI50 provided is in the form of a range, it means that multiple experiments, whose results fall within the range indicated, were performed. Otherwise, results of individual experiments are provided.

COc1cc(NC(=S)NC(=O)/C=C/c2ccco2)ccc1-c1cc2ccccc2oc1=O [Compound 01, (2E)-3-(2-furyl)-N-({[3-methoxy-4-(2-oxo-2H-chromen-3-yl)phenyl]amino}carbonothioyl)acrylamide]
GI50: 59 to 200 nM
